Reference: ChEMBL document CHEMBL1201862, “PubChem BioAssay data set” (2004)
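Grown in 96-well plates, cells were treated for 48 hours with each compound at five concentrations. Insufficient inhibition: endpoint recorded as highest concentration tested. Abbreviation: GI50, concentration required for 50% inhibition of growth.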 Activity calls are given as the source filed them. No stated cut-off is given here; in the data, active = GI50 up to about 1.1 µM and inactive = higher. Non-standard residues stand in square brackets, D forms with d. Residues, ends and D or L forms follow the SMILES beside them. *: point of attachment. X30 = COC1=CC(=O)N(C(=O)[C@@H](O*)C(C)C)[C@H]1Cc1ccccc1; NMeL = CN[C@@H](CC(C)C)C(=O)O; Cbz = O=C(OCc1ccccc1)*

How the values were obtained:
Assay in all cases: inhibition of tumour cell growth, NCI panel, 48 h
[1] = tested on: 786-0
[2] = tested on: A498
[3] = tested on: A549
[4] = tested on: ACHN
[5] = tested on: BT-549
[6] = tested on: CAKI-1
[7] = tested on: CCRF-CEM
[8] = tested on: COLO 205
[9] = tested on: DU-145
[10] = tested on: EKVX
[11] = tested on: HCC 2998
[12] = tested on: HCT-116
[13] = tested on: HCT-15
[14] = tested on: HL-60
[15] = tested on: HOP-62
[16] = tested on: HOP-92
[17] = tested on: HT-29
[18] = tested on: Hs-578T
[19] = tested on: IGROV-1
[20] = tested on: K562
[21] = tested on: KM12
[22] = tested on: LOX IMVI
[23] = tested on: M14
[24] = tested on: MCF7
[25] = tested on: MDA-MB-231
[26] = tested on: MDA-MB-435
[27] = tested on: MDA-N
[28] = tested on: Malme-3M
[29] = tested on: NCI-H226
[30] = tested on: NCI-H23
[31] = tested on: NCI-H460
[32] = tested on: NCI-H522
[33] = tested on: NCI/ADR-RES
[34] = tested on: OVCAR-3
[35] = tested on: OVCAR-4
[36] = tested on: OVCAR-5
[37] = tested on: OVCAR-8
[38] = tested on: PC-3
[39] = tested on: RPMI-8226
[40] = tested on: RXF 393
[41] = tested on: SF-268
[42] = tested on: SF-295
[43] = tested on: SF-539
[44] = tested on: SK-MEL-28
[45] = tested on: SK-MEL-2
[46] = tested on: SK-OV-3
[47] = tested on: SN12C
[48] = tested on: SNB-19
[49] = tested on: SNB-75
[50] = tested on: SW-620
[51] = tested on: T47D
[52] = tested on: TK-10
[53] = tested on: U-251
[54] = tested on: UACC-257
[55] = tested on: UACC-62
[56] = tested on: UO-31
[57] = tested on: MOLT-4
[58] = tested on: SK-MEL-5
[59] = tested on: SR

COC1=CC(=O)N(C(=O)[C@@H](OC(=O)[C@@H]2CCCN2C(=O)[C@@H]2CCCN2C(=O)[C@H](CC(C)C)N(C)C(=O)[C@@H](NC(=O)[C@@H](NC(=O)OCc2ccccc2)C(C)C)C(C)C)C(C)C)[C@H]1Cc1ccccc1 (Cbz-VV[NMeL]PP-X30)
GI50 [1]: 23.3 µM (inactive) | GI50 [2]: 19.6 µM (inactive) | GI50 [3]: 76.7 µM (inactive) | GI50 [4]: > 100 µM (inactive) | GI50 [5]: 23.1 µM (inactive) | GI50 [6]: > 100 µM (inactive) | GI50 [7]: 35.3 µM (inactive) | GI50 [8]: > 100 µM (inactive) | GI50 [9]: > 100 µM (inactive) | GI50 [10]: > 100 µM (inactive) | GI50 [11]: > 100 µM (inactive) | GI50 [12]: 44.6 µM (inactive) | GI50 [13]: > 100 µM | GI50 [14]: > 100 µM (inactive) | GI50 [15]: 21.4 µM (inactive) | GI50 [16]: 20.5 µM (inactive) | GI50 [17]: > 100 µM (inactive) | GI50 [18]: > 100 µM (inactive) | GI50 [19]: 79.1 µM (inactive) | GI50 [20]: > 100 µM (inactive) | GI50 [21]: > 100 µM (inactive) | GI50 [22]: > 100 µM (inactive) | GI50 [23]: 70.1 µM (inactive) | GI50 [24]: 56 µM (inactive) | GI50 [25]: 15 µM (inactive) | GI50 [26]: > 100 µM (inactive) | GI50 [27]: > 100 µM (inactive) | GI50 [28]: > 100 µM (inactive) | GI50 [29]: > 100 µM (inactive) | GI50 [30]: > 100 µM (inactive) | GI50 [31]: 52.7 µM (inactive) | GI50 [32]: > 100 µM (inactive) | GI50 [33]: > 100 µM (inactive) | GI50 [34]: 47.1 µM (inactive) | GI50 [35]: > 100 µM (inactive) | GI50 [36]: > 100 µM (inactive) | GI50 [37]: > 100 µM (inactive) | GI50 [38]: 11.2 µM (inactive) | GI50 [39]: 17.6 µM (inactive) | GI50 [40]: 14.2 µM (inactive) | GI50 [41]: > 100 µM (inactive) | GI50 [42]: 20.3 µM (inactive) | GI50 [43]: 15 µM (inactive) | GI50 [44]: > 100 µM (inactive) | GI50 [45]: 9.42 µM (inactive) | GI50 [46]: 31.3 µM (inactive) | GI50 [47]: 34.8 µM (inactive) | GI50 [48]: 28.6 µM (inactive) | GI50 [49]: 2.37 µM (inactive) | GI50 [50]: > 100 µM (inactive) | GI50 [51]: 68.2 µM (inactive) | GI50 [52]: 64.7 µM (inactive) | GI50 [53]: 24.9 µM (inactive) | GI50 [54]: 76 µM (inactive) | GI50 [55]: 48.1 µM (inactive) | GI50 [56]: > 100 µM (inactive)

COc1ccc(OC)c2sc(N3C(=O)/C(=C/c4ccc(N(C)C)cc4)N=C3c3ccccc3)nc12
GI50 [1]: 92.3 µM (inactive) | GI50 [2]: 87.7 µM (inactive) | GI50 [3]: 83.6 µM (inactive) | GI50 [4]: 50.5 µM (inactive) | GI50 [5]: 97.1 µM (inactive) | GI50 [6]: > 100 µM (inactive) | GI50 [7]: 6.04 µM (inactive) | GI50 [8]: > 100 µM (inactive) | GI50 [9]: > 100 µM (inactive) | GI50 [10]: > 100 µM (inactive) | GI50 [11]: > 100 µM (inactive) | GI50 [12]: 34.8 µM (inactive) | GI50 [13]: 59.2 µM | GI50 [14]: 20.9 µM (inactive) | GI50 [15]: > 100 µM (inactive) | GI50 [16]: > 100 µM (inactive) | GI50 [17]: 61.8 µM (inactive) | GI50 [18]: 91 µM (inactive) | GI50 [19]: > 100 µM (inactive) | GI50 [20]: 79.8 µM (inactive) | GI50 [21]: 52 µM (inactive) | GI50 [22]: 41 µM (inactive) | GI50 [23]: 99.3 µM (inactive) | GI50 [24]: 22.3 µM (inactive) | GI50 [25]: > 100 µM (inactive) | GI50 [26]: 31.4 µM (inactive) | GI50 [27]: 22.2 µM (inactive) | GI50 [57]: 15.5 µM (inactive) | GI50 [31]: 92.9 µM (inactive) | GI50 [33]: > 100 µM (inactive) | GI50 [34]: 58.2 µM (inactive) | GI50 [35]: > 100 µM (inactive) | GI50 [36]: > 100 µM (inactive) | GI50 [37]: 78.5 µM (inactive) | GI50 [38]: 33 µM (inactive) | GI50 [39]: 11 µM (inactive) | GI50 [41]: > 100 µM (inactive) | GI50 [42]: > 100 µM (inactive) | GI50 [43]: 98.2 µM (inactive) | GI50 [44]: > 100 µM (inactive) | GI50 [45]: 36.9 µM (inactive) | GI50 [58]: 39.2 µM (inactive) | GI50 [46]: > 100 µM (inactive) | GI50 [47]: 52.5 µM (inactive) | GI50 [48]: > 100 µM (inactive) | GI50 [49]: 80.5 µM (inactive) | GI50 [59]: 19.6 µM (inactive) | GI50 [50]: 49.8 µM (inactive) | GI50 [51]: 38.5 µM (inactive) | GI50 [52]: > 100 µM (inactive) | GI50 [53]: 44.1 µM (inactive) | GI50 [54]: > 100 µM (inactive) | GI50 [55]: 28.3 µM (inactive) | GI50 [56]: 55 µM (inactive)

Cc1c2c(n3c(nc4ccccc43)c1C#N)SCC2
GI50 [1]: 8.71 µM (inactive) | GI50 [2]: 3.36 µM (inactive) | GI50 [3]: > 10 µM (inactive) | GI50 [4]: > 10 µM (inactive) | GI50 [5]: > 10 µM (inactive) | GI50 [6]: > 10 µM (inactive) | GI50 [7]: > 10 µM (inactive) | GI50 [9]: > 10 µM (inactive) | GI50 [10]: > 10 µM (inactive) | GI50 [12]: > 10 µM (inactive) | GI50 [13]: > 10 µM | GI50 [14]: > 10 µM (inactive) | GI50 [15]: > 10 µM (inactive) | GI50 [16]: > 10 µM (inactive) | GI50 [17]: > 10 µM (inactive) | GI50 [18]: > 10 µM (inactive) | GI50 [19]: > 10 µM (inactive) | GI50 [20]: > 10 µM (inactive) | GI50 [21]: > 10 µM (inactive) | GI50 [22]: > 10 µM (inactive) | GI50 [23]: > 10 µM (inactive) | GI50 [24]: > 10 µM (inactive) | GI50 [25]: > 10 µM (inactive) | GI50 [26]: > 10 µM (inactive) | GI50 [27]: > 10 µM (inactive) | GI50 [57]: > 10 µM (inactive) | GI50 [28]: > 10 µM (inactive) | GI50 [29]: > 10 µM (inactive) | GI50 [30]: > 10 µM (inactive) | GI50 [31]: > 10 µM (inactive) | GI50 [33]: > 10 µM (inactive) | GI50 [34]: > 10 µM (inactive) | GI50 [35]: > 10 µM (inactive) | GI50 [36]: > 10 µM (inactive) | GI50 [37]: > 10 µM (inactive) | GI50 [38]: > 10 µM (inactive) | GI50 [39]: > 10 µM (inactive) | GI50 [41]: > 10 µM (inactive) | GI50 [42]: > 10 µM (inactive) | GI50 [43]: > 10 µM (inactive) | GI50 [44]: > 10 µM (inactive) | GI50 [45]: > 10 µM (inactive) | GI50 [58]: > 10 µM (inactive) | GI50 [46]: > 10 µM (inactive) | GI50 [47]: > 10 µM (inactive) | GI50 [48]: > 10 µM (inactive) | GI50 [49]: > 10 µM (inactive) | GI50 [59]: > 10 µM (inactive) | GI50 [50]: > 10 µM (inactive) | GI50 [51]: > 10 µM (inactive) | GI50 [52]: > 10 µM (inactive) | GI50 [53]: > 10 µM (inactive) | GI50 [54]: > 10 µM (inactive) | GI50 [55]: > 10 µM (inactive) | GI50 [56]: > 10 µM (inactive)
